Source: ChEMBL document CHEMBL1201862, “PubChem BioAssay data set” (2004)
Activity calls are given as the source filed them. For most assays here, no stated cut-off is given here; in the data, actives have a measured EC50 and inactives only a lower limit.

How the values were obtained:
cells [1] = type: functional, cell-based
cells [2] = type: functional, cell-based; remark: listed apart in the source
[3] = Luminescence Cell-Based Dose Confirmation HTS to Identify Activators of 5'UTR Stem-Loop Driven Alpha-Synuclein mRNA Translation in H4 Neuroglioblastoma Cells. [Related pubchem assays: 1829 (Project Summary), 1814 (Primary HTS)]; type: functional
[4] = Luminescence Cell-Based Dose Response HTS to Identify Activators of Luciferase Translation or Activity in H4 […] Cells. [Related pubchem assays: 1829 (Project Summary), 1814 (Primary HTS)]; type: functional
H4 = assay: Luminescence Cell-Based Dose Response HTS to Identify Activators of 5'UTR Stem-Loop Driven Prion Protein mRNA Translation in H4 Neuroglioblastoma Cells. [Related pubchem assays: 1829 (Project Summary), 1814 (Primary HTS)]; type: functional; settings: Homo sapiens
H9c2 = assay: cells; type: functional, cell-based; settings: Rattus norvegicus, H9c2, Myocardium;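 further: confirmatory concentration-response retest of ultra-high-throughput screening hits for modulation of myocardial damage; cell death induced by hydrogen peroxide oxidative stress; compound pretreatment for 60 min then peroxide exposure for 2 h; potency is for protecting the cells against peroxide damage rather than for killing them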
[5] = NIH-3T3 fibroblast cytotoxicity, dose response, cytotoxicity control, cell-based, fluorescence, Alamar Blue, secondary assay (AID 2327); type: functional;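 further: NIH-3T3 mouse fibroblasts cultured with fluconazole at 8 µg/mL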
[6] = C. albicans growth with fluconazole, confirmation, fluorescence, retest (AID 2467); type: functional, cell-based
[7] = target: Luciferin 4-monooxygenase (Photinus pyralis, UniProt P08659); assay: firefly luciferase enzyme inhibitors, dose response, biochemical, luminescence (AID 1891)
[8] = Luminescence Cell-Based Dose Confirmation HTS to Identify Inhibitors of Platelet Dense Granule Release. [Related pubchem assays: 1663 (Primary HTS), 1678 (Summary of Project)]; type: functional
[9] = Luminescence Cell-Based Dose Retest to Confirm Inhibitors of Cancer Stem Cells. [Related pubchem assays (depositor defined):AID2717, AID2721]; type: functional; settings: Homo sapiens
[10] = target: T1, DNA repair protein RAD52 homolog (Homo sapiens, UniProt P43351); type: functional, biochemical
T1 sequence (P43351 whole entry): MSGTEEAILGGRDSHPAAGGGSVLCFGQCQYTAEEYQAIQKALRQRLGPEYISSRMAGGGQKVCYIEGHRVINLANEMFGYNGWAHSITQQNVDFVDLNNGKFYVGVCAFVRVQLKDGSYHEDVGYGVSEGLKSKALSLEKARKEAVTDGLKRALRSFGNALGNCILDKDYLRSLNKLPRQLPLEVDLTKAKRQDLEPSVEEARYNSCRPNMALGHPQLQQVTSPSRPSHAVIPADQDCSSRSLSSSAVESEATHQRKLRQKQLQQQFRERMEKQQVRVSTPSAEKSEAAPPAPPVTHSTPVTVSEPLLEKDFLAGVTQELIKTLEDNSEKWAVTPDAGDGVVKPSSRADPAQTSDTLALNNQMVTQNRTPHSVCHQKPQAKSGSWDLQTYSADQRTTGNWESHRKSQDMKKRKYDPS

BJ [11] = assay: cytotoxicity toward BJ-TERT fibroblasts, dose response, cell-based, RAS-independent, luminescence (AID 1933); type: functional; settings: Homo sapiens
BJ [12] = assay: cells; type: functional, cell-based; settings: Homo sapiens
BJ [13] = assay: cytotoxicity toward BJ-TERT-LT-ST fibroblasts, dose response, cell-based, RAS-independent, luminescence (AID 1935); type: functional; settings: Homo sapiens;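 further: BJ fibroblasts immortalized with TERT plus LT and ST oncogenes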
[14] = cytotoxicity toward DRD oncogenic fibroblasts, dose response, cell-based, non-viral oncogenic, luminescence (AID 1934); type: functional; settings: Homo sapiens
[15] = P. falciparum Dd2 growth inhibitors, dose response, SYBR Green, cherry-picked samples (AID 1159567); type: functional, cell-based
Paired box protein Pax-8 = Paired box protein Pax-8 (Homo sapiens, UniProt Q06710); assay: inhibitors of PAX8-driven TPO luciferase reporter, dose response, RMG-I cells, cherry-pick (AID 687027); type: functional, cell-based;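 further: luciferase reporter driven by Pax8 target thyroperoxidase promoter measured by SteadyGlo luminescence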
[16] = target: Heat shock protein HSP 90-alpha (Homo sapiens, UniProt P07900); type: functional, organism-based
Protein skinhead-1 = target: T2, Protein skinhead-1 (Caenorhabditis elegans, UniProt P34707); type: functional
T2 sequence (P34707 whole entry): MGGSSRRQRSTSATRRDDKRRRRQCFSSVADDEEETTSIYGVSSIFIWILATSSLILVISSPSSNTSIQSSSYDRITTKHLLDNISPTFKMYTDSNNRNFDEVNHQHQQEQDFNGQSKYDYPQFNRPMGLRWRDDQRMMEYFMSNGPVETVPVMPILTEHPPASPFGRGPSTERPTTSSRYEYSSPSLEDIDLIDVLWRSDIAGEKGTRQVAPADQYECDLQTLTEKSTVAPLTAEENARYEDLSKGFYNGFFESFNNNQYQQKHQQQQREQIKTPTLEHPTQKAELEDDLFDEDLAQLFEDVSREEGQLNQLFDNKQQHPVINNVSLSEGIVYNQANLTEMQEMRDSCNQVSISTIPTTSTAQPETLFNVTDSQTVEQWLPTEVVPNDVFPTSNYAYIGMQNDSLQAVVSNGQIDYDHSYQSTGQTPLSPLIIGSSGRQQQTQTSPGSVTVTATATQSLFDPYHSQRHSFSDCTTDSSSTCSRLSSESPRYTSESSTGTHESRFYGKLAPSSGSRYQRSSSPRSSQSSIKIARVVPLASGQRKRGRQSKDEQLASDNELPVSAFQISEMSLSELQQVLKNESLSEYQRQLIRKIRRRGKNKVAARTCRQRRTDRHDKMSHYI

Large T antigen = Large T antigen (Simian virus 40, UniProt P03070); type: functional, Betapolyomavirus macacae;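 further: Confirmatory-stage PubChem screen for compounds that inhibit SV40 T antigen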
[17] = inhibitors of intracellular T. cruzi replication, confirmation, NIH3T3 host cells, beta-gal luminescence (AID 2044); type: functional, cell-based;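 further: intracellular parasites grown in NIH/3T3 mouse fibroblasts as host cells; luminescent beta-galactosidase reporter signal from transgenic T. cruzi replicating inside host cells; inhibitors lower the luminescence signal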
[18] = cytotoxicity toward NIH3T3 fibroblasts, dose response, counter-screen, cell-based, ATP luminescence, mouse fibroblasts (AID 2010); type: functional;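 further: cells exposed to compound for about 90 hours before reading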
INS1 = assay: beta cell apoptosis inhibitors, cytokine rescue, dose response, luminescence, retest (AID 449756); type: functional, cell-based; settings: Rattus norvegicus;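 further: cell death triggered by IL-1 beta plus TNF-alpha plus IFN-gamma mixture; protective hits raise ATP signal compared with cytokine alone wells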

Sequence of Luciferin 4-monooxygenase (P08659 whole entry): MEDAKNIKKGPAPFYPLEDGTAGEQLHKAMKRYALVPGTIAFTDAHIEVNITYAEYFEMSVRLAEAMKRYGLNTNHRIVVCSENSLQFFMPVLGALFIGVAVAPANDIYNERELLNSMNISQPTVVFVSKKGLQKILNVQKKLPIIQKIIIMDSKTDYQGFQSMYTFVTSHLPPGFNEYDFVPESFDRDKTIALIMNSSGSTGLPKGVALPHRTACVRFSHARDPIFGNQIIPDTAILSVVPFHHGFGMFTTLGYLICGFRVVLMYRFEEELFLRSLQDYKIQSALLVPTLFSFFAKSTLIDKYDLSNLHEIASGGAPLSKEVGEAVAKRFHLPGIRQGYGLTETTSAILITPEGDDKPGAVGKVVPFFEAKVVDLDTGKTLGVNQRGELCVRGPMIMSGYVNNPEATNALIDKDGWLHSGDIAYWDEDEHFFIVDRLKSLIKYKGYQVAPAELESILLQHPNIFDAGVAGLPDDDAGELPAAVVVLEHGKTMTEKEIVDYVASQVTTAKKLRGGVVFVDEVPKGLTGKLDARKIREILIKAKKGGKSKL
Sequence of Paired box protein Pax-8 (Q06710 whole entry): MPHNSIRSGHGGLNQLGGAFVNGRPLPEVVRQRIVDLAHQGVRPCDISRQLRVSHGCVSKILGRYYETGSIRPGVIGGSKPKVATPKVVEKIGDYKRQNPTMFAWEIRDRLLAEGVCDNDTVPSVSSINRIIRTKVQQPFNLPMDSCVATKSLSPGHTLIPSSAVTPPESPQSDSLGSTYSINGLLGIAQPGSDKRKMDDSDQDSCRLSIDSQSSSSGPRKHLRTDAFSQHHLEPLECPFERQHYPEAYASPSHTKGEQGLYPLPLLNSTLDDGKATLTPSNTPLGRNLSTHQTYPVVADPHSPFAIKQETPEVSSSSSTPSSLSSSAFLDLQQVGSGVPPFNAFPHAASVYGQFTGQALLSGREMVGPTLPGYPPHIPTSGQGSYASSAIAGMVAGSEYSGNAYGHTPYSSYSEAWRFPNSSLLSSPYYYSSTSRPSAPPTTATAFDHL
Sequence of Large T antigen (P03070 whole entry): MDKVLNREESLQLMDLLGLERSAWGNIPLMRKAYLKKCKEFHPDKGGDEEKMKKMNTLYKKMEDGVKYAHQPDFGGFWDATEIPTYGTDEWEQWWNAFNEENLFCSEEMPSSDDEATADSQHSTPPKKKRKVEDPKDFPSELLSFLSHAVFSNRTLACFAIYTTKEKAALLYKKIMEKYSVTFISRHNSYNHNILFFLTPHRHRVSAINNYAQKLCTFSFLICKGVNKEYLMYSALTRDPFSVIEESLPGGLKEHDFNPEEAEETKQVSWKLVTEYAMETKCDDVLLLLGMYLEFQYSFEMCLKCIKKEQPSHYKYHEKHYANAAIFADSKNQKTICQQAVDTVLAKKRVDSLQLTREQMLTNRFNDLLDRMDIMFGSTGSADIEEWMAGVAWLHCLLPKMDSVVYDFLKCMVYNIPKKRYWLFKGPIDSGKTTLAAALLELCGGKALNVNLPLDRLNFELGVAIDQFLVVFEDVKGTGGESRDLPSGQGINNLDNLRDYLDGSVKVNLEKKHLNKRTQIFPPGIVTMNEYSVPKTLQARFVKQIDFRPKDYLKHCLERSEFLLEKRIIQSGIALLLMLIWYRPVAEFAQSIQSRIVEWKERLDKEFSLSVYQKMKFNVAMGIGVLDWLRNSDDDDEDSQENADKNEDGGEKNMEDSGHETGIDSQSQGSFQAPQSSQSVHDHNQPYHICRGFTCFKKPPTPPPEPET

COc1ccc(CC(NC(C)=O)C(=O)NC2CCN(C(=O)c3cccc(Cl)c3)CC2)cc1OC (stereo not given)
EC50 (cells [1]): > 350 µM (not active)
EC50 (cells [2]): > 350 µM (not active)

CCC1(c2ccc(Cl)cc2)N=C(S)N(c2ccc(C)cc2)N1 (stereo not given)
EC50 [3]: 19.1 µM (active)
EC50 [4]: 11.2 µM (active)
EC50 (H4): 14.7 µM (inconclusive)

COC(=O)c1ccc(Cn2nnc3c(O)nc(C4CCCN(S(=O)(=O)c5ccccc5)C4)nc32)cc1 (stereo not given)
IC50 (H9c2): 18.3 µM (active)

Cn1nc(C(=O)NC2CCCCC2)c2c1-c1ccccc1SC2
EC50 [3]: 13.4 µM (active)
EC50 [4]: 25.7 µM (active)
EC50 (H4): 12.2 µM (active)

Cc1ccc2c(c1)C1CN(C)CCC1N2Sc1ccccc1[N+](=O)[O-] (stereo not given)
EC50 [5]: > 150 µM (inactive)
EC50 [6]: > 38 µM (not active)

CCOC(=O)C1=c2s/c(=C\c3ccncc3)c(=O)n2C(N)=C(C(=O)OC)C1c1ccncc1 (stereo not given)
IC50 (H9c2): > 79 µM (inactive)

Cc1ccc(C(=O)NC(=S)NNC(=O)c2ccccc2[N+](=O)[O-])cc1
EC50 [5]: 18.8 µM (inconclusive)
EC50 [6]: > 38 µM (not active)

COc1ccc(CCNC(=O)c2cc(S(=O)(=O)N3CCOCC3)cn2C)cc1OC
EC50 [7]: > 112 µM (not active)
EC50 [8]: > 112 µM (not active)

COc1ccccc1NC(=O)c1c(Nc2ccccc2F)sc(C(=O)Nc2cccc(Cl)c2)c1N
AC50 [9]: 1.16 µM (active)

Cc1ccc(N2CC(=O)Nc3c(sc4nc(C)cc(C)c34)C2=O)cc1
EC50 (cells [1]): > 350 µM (not active)
EC50 (cells [2]): > 350 µM (not active)

COc1ccc(N(CC(=O)Nc2ccc3c(c2)OCO3)S(=O)(=O)c2ccccc2)c(OC)c1
IC50 (H9c2): > 79 µM (inactive)

CC(OC(=O)Cc1nnc(O)c2ccccc12)C(=O)Nc1cccc([N+](=O)[O-])c1 (stereo not given)
IC50 (H9c2): > 79 µM (inactive)

O=C1CCCC(=O)C1=CNc1cccc(C(F)(F)F)c1
EC50 (cells [1]): > 350 µM (not active)
EC50 (cells [2]): > 350 µM (not active)

N#CCC(=O)N/N=C/c1ccc(SCC(=O)Nc2ccccc2)o1
EC50 (cells [1]): > 350 µM (not active)
EC50 (cells [2]): > 350 µM (not active)

CCn1cc(C(=O)N[C@@H](CCSC)C(=O)NCCCn2ccnc2)c(=O)c2cc3c(cc21)OCO3
EC50 [7]: > 112 µM (not active)
EC50 [8]: > 112 µM (not active)

COC(=O)c1ccc2c(O)nc(COC(=O)c3[nH]c(C)c(C(C)=O)c3C)nc2c1
IC50 (H9c2): 7.05 µM (active)

Cc1cccc(OCC(=O)Nc2ccc3c(c2)nc(CN2CCCCC2)n3C)c1
AC50 [10]: 20 µM (active)

CCN=C(S)NNC(=O)c1cc(-c2ccc(OC)cc2)nc2ccccc12
EC50 [5]: > 160 µM (inactive)
EC50 (BJ [11]): 9.62 µM (active)
EC50 (BJ [12]): 14 µM (active)
EC50 [6]: > 38 µM (not active)
EC50 [7]: 0.107 µM (active)
EC50 [8]: 1.38 µM (active)
EC50 (BJ [13]): > 150 µM (not active)
EC50 [14]: 11 µM (active)

COC(=O)c1cnn2c(O)c(Cc3ccc(F)cc3Cl)c(C)nc12
EC50 [5]: > 150 µM (inactive)
EC50 [6]: 1.33 µM (active)

O=C(Cn1c(S)nc2ccccc21)c1ccccc1
EC50 [7]: > 112 µM (not active)
EC50 [8]: > 112 µM (not active)

Cc1ccc(/N=C/c2cc(Cl)cc(Cl)c2O)nc1
IC50 (H9c2): 13.5 µM (active)

C[C@@H](C(=O)N(C)C[C@@H]1OCc2ccccc2-c2c(n(C)c3ccccc23)C(=O)N([C@@H](C)CO)C[C@@H]1C)c1ccccc1
AC50 [15]: 6.3 µM (active)

CSC1=NN=C(c2ccc(C(C)(C)C)cc2)NN1
EC50 [3]: 15.2 µM (active)
EC50 [4]: 36.5 µM (active)
EC50 (H4): 16.9 µM (active)

COC(=O)c1ccc(CSc2nc3c(c(=O)n2-c2ccc(F)cc2)SCC3)o1
EC50 (cells [1]): > 350 µM (not active)
EC50 (cells [2]): > 350 µM (not active)

CC1=CS/C(=C(/C#N)C(=O)N2CCOCC2)N1c1ccccc1
EC50 [7]: > 112 µM (not active)
EC50 [8]: > 112 µM (not active)

CC1(C)C(=O)C(c2nc3ccccc3[nH]2)=C(N)N1c1ccccc1
EC50 [5]: 58.9 µM (active)
EC50 [6]: 5.1 µM (active)

O=C(CCS(=O)(=O)c1ccccc1)Nc1ncc([N+](=O)[O-])s1
EC50 [5]: > 150 µM (inactive)
EC50 [6]: 0.746 µM (active)

Cc1ccc(S(=O)(=O)Nc2ccc3c(c2)C(=O)N([C@@H](C)CO)C[C@@H](C)[C@H](CN(C)Cc2ccc(Cl)c(Cl)c2)OCCCC[C@@H](C)O3)cc1
AC50 (Paired box protein Pax-8): 7.92 µM (active)

COc1ccc2occ(C(=O)c3cccs3)c2c1
EC50 [3]: 6.67 µM (active)
EC50 [4]: 13.3 µM (active)
EC50 (H4): 32.6 µM (active)

Cc1ccc(O)c(-c2cc(-c3cccc(F)c3)[nH]n2)c1
AC50 [16]: 25.4 µM (active)
IC50 (Protein skinhead-1): > 100 µM (inactive)

O=C(CCSc1ccc(Cl)cc1)N1CCN(c2ccc(O)cc2)CC1
IC50 (Large T antigen): 6.74 µM (active)
EC50 [17]: 0.169 µM (active)
EC50 [18]: 6.9 µM (active)
AC50 [9]: 2.51 µM (active)

C/C(N)=C(/C#N)C(=O)COC(=O)c1cc(-c2ccc(C)cc2)nc2ccccc12
AC50 [9]: 17.4 µM (active)
AC50 (INS1): > 260 µM (inactive)

Cc1ccc(Nc2cc(-n3cccn3)ncn2)c(C)c1
EC50 [3]: 0.12 µM (active)
EC50 [4]: 0.619 µM (active)
EC50 (H4): < 0.1 µM (active)

O=C(N1CCOCC1)N1CCN(S(=O)(=O)N2CCOCC2)CC1
EC50 [7]: > 112 µM (not active)
EC50 [8]: > 112 µM (not active)

CCc1nnc(NC(=O)CCC(=O)N2CCN(C3c4ccccc4-c4ccccc43)CC2)s1
IC50 (H9c2): 17.4 µM (active)

Cc1cc([N+](=O)[O-])ccc1NC(=O)CSc1nncn1-c1cccnc1
EC50 [7]: > 112 µM (not active)
EC50 [8]: > 112 µM (not active)

O=C1Cc2ccccc2Sc2ccc(Cl)cc21
EC50 [7]: > 112 µM (not active)
EC50 [8]: > 112 µM (not active)

COc1ccc(-c2nnc3sc(-c4ccco4)nn23)cc1OC
IC50 (H9c2): > 79 µM (inactive)

CCc1nc(C)c(C(=O)N2CCCC(C(=O)Nc3cccc(-c4cccc(C)c4)c3)C2)o1 (stereo not given)
EC50 [3]: 8.19 µM (active)
EC50 [4]: 7.7 µM (active)
EC50 (H4): 16.3 µM (active)

COc1ccc(-c2cc(C(=O)N(C)Cc3nc(O)c4ccccc4n3)c3ccccc3n2)cc1OC
IC50 (H9c2): > 79 µM (inactive)

O=C(NCc1cccnc1)C(=O)NCC1OCCN1S(=O)(=O)c1ccccc1 (stereo not given)
EC50 [7]: > 112 µM (not active)
EC50 [8]: > 112 µM (not active)

C=C(C)C(=O)OC1(C(F)(F)F)Oc2cc(C)ccc2NC1=O (stereo not given)
AC50 (Paired box protein Pax-8): 9.05 µM (active)

COc1ccc(C#Cc2ccc3c(c2)[C@H]2[C@H](CCN2C(=O)c2ccccn2)[C@H](CO)N3)cc1
AC50 [15]: 5.61 µM (active)

CCOc1ccccc1CNS(=O)(=O)c1c[nH]cn1
EC50 [7]: > 112 µM (not active)
EC50 [8]: > 112 µM (not active)

O=C(CSC1=NCCS1)N1CCc2ccccc21
EC50 [3]: 10.7 µM (active)
EC50 [4]: 45.7 µM (active)
EC50 (H4): 15.4 µM (active)
